The record followed here is US20250213586A1, “STAT6 INHIBITORS AND USES THEREOF” (Kymera Therapeutics, Inc., priority 2024, published 2025).

The target of test [1] is T1, biotinylated truncated STAT6 (123-632)-avi (Homo sapiens, UniProt P42226).
T1 sequence (P42226 123-632 limits assumed): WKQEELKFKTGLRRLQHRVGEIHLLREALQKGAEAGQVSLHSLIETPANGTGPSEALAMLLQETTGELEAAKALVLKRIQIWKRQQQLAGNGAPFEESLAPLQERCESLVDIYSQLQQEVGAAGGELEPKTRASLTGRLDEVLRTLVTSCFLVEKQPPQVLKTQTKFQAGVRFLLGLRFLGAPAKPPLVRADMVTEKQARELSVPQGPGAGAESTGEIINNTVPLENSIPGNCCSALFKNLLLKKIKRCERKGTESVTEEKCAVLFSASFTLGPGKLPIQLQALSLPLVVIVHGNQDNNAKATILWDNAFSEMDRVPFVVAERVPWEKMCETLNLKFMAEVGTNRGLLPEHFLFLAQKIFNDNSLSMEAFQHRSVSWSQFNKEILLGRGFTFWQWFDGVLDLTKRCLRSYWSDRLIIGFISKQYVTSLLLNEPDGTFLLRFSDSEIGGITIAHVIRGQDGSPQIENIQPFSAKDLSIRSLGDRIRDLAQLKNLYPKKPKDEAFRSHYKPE
The experiment in a line: biochemical.

For test [2], the target named is T2, STAT6 (Homo sapiens, UniProt P42226).
T2 sequence (P42226 1-847): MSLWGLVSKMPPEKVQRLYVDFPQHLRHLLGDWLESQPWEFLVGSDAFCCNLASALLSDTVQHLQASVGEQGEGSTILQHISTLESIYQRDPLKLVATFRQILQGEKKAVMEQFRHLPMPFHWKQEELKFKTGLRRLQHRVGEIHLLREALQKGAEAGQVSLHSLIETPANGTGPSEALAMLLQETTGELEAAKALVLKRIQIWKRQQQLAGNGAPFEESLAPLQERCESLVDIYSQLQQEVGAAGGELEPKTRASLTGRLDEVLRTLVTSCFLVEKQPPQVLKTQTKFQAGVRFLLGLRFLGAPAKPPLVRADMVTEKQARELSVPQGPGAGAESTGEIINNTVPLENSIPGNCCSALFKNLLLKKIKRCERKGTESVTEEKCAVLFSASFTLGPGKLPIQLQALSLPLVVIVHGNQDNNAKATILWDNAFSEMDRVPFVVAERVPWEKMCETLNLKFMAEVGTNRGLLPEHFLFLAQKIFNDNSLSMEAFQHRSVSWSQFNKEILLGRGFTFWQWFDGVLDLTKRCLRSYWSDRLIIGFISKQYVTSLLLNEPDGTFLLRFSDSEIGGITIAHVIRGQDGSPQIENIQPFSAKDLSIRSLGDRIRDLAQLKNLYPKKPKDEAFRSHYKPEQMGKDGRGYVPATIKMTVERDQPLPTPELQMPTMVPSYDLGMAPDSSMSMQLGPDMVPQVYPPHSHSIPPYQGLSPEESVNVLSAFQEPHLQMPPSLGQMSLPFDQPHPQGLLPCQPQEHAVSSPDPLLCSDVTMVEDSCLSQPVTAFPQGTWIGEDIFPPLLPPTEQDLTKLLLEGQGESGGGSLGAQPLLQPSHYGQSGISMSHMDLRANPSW
The experiment in a line: Phosphorylated STAT6 (pSTAT6) flow cytometry assay in human PBMC, IL-4 stimulated. The test is classed as cell-based. Set-up: endogenous in cells; host or cells: human PBMC (CD19+ B cells), IL-4 stimulated. Particulars: 1 hour compound, 1 ng/ml IL-4 15 minutes, pSTAT6 in CD19+ B cells, read-out: STAT6 IL4 pSTAT6 assay in PBMC: Average IC50. The method, then:
Example 2. Phosphorylated STAT6 (pSTAT6) Flow Cytometry Assay in Human PBMC
Phosphorylation of STAT6 in human PBMC was quantitatively measured using flow cytometry technology. Human PBMC were seeded in 96-well plates with a density of 0.3 to 0.5 million cells per well in 100 μl fresh media. Compounds were then added to the assay plates with a final top concentration of up to […] in a 1:3 dilution series with total of 9 doses. The assay plates were incubated for 1 hour at 37° C. under 5% CO2. The cells were then stimulated with 1 ng/ml of IL-4 (R&D Systems, Cat #6507-IL) for 15 minutes, followed by fixation for 30 minutes at 4° C. Cells were spun down at 350 g for 5 minutes. The supernatant was removed and cells were washed once with FACS buffer. Cells were permeabilized with 90% MeOH/H2O for 30 minutes at 4° C., followed by one wash with FACS buffer. Non-specific binding were blocked with human Fc for 1 hour at 4° C., followed by one wash with FACS buffer. AF488 conjugated pSTAT6 antibody (BD Biosciences, Cat #612600, 1:100 dilution) and PE conjugated CD19 antibody (BD Biosciences, Cat #341103, 1:50 dilution) diluted in 100 μl FACS buffer was added to each well with overnight incubation at 4° C. Cells were then washed once with FACS buffer and resuspended in 200 μl of FACS buffer for flow cytometry to quantify pSTAT6 in CD19+ B cells. The data was analyzed by GraphPad Prism and the dose dependent pSTAT6 inhibition was fit using the four-parameter inhibitor vs. response nonlinear regression.

Test [3] addresses T2, STAT6. The test can be described thus: Phosphorylated STAT6 (pSTAT6) flow cytometry assay in human A549 cells. The test is classed as cell-based. Set-up: endogenous in cells. The note with it: read-out: STAT6 IL4 pSTAT6 assay in A549 cells: Average IC50.
Excerpt: Example 3. Phosphorylated STAT6 (pSTAT6) Flow Cytometry Assay in Human A549 Cells
Phosphorylation of STAT6 in human A549 cells was quantitatively measured using flow cytometry technology.

Some results are limits rather than exact numbers.

Consider `Cn1cccc(-c2ccc([C@H]3CCCN(C(=O)CCn4ccnn4)C3)cc2F)c1=O` (single isomer, unassigned) [Compound I-7], for which the IC50 in test [1] is 10 to 100 µM; on STAT6 [2], > 100 µM.

Turning to `Cn1cccc(-c2ccc([C@@H]3CCCN(C(=O)CCn4ccnn4)C3)cc2F)c1=O` (single isomer, unassigned) [Compound I-320], the IC50 in test [1] was 10 to 100 µM; on STAT6 [2] it was > 100 µM.

In test [1], `O=C(CCn1ccnn1)N1CCC[C@@H](c2ccc(-n3ccccc3=O)c(F)c2)C1` (single isomer, unassigned) [Compound I-1293] gave an IC50 of 10 to 100 µM.

In test [1], `O=C(CCn1ccnn1)N1CCC[C@H](c2ccc(-n3ccccc3=O)c(F)c2)C1` (single isomer, unassigned) [Compound I-1294] registered an IC50 of 10 to 100 µM.

`CN1CCN(c2ccc(C3=CCCN(C(=O)CCn4ccnn4)C3)cc2Cl)CC1=O` [Compound I-6]: the IC50 (in test [1]; on STAT6 [2]) was 10 to 100 µM each time.

As for `CN(CC1CCN(c2ccc(-n3ccccc3=O)cc2F)CC1)C(Cc1cccnn1)c1ccc(CO)cc1` (stereo not drawn) [Compound I-121], the IC50 (in test [1]; on STAT6 [2]) was > 100 µM each time.

With `Cc1cscc1-c1cc(CO)ccc1C(=O)N(C)CC1CCN(c2ccc(-n3ccccc3=O)cc2F)CC1` [Compound I-131], the IC50 in test [1] is 10 to 100 µM; on STAT6 [2], > 100 µM.

Regarding `CN(CC1CCN(c2ccc(-n3ccccc3=O)cc2F)CC1)C(=O)c1ccc(CO)cc1-c1ccsc1` [Compound I-164], the 50% inhibitory concentration (IC50) is 1 to 10 µM in test [1] and > 100 µM at STAT6 [2].

With `CN(CC1CCN(c2ccc(-n3ccccc3=O)cc2)CC1)C(=O)c1ccc(CO)cc1` [Compound I-183], the IC50 in test [1] was 10 to 100 µM; on STAT6 [2], > 100 µM.

With `CN(C)C(=O)c1ccc(C2=CCCN(C(=O)CCn3ccnn3)C2)cc1C(N)=O` [Compound I-211], the IC50 in test [1] is 10 to 100 µM; on STAT6 [2], > 100 µM.

For the compound `CN(C)C(=O)c1ccc(C2=CCCN(C(=O)CCn3ccnn3)C2)cc1O` [Compound I-218], the values for the 50% inhibitory concentration (IC50) (in test [1]; on STAT6 [2]) were 10 to 100 µM and > 100 µM, respectively.

For the compound `CN(C)C(=O)c1ccc(C2=CCCN(C(=O)CC3CNc4ccccc4O3)C2)c(C#N)c1` (stereo not drawn) [Compound I-223], the IC50 is 10 to 100 µM in test [1] and > 100 µM on STAT6 [2].

On to `CN(C)C(=O)c1ccc(C2=CCCN(C(=O)CCn3ccnn3)C2)cc1C#N` [Compound I-230], for which the 50% inhibitory concentration (IC50) (in test [1]; at STAT6 [2]) was > 100 µM each time.

For the compound `CN(C)C(=O)c1ccc(N2CCC(CN(C)C(=O)c3ccc(CO)cc3)CC2)c(F)c1` [Compound I-238], the values for the 50% inhibitory concentration (IC50) (in test [1]; on STAT6 [2]) were 10 to 100 µM and > 100 µM, respectively.

For the compound `CN(C)C(=O)c1ccc2ccc(C3=CCCN(C(=O)CCn4ccnn4)C3)cc2c1` [Compound I-242], the IC50 is 10 to 100 µM in test [1] and > 100 µM on STAT6 [2].

In the case of `COC(=O)COc1cc(C2=CCCN(C(=O)CCn3ccnn3)C2)ccc1C(=O)N(C)C` [Compound I-250], the IC50 in test [1] is 10 to 100 µM; at STAT6 [2], > 100 µM.

In the case of `CN(C)C(=O)c1ccc(C2=CCCN(C(=O)CCn3ccnn3)C2)c(O)c1` [Compound I-253], the figures for the IC50 (in test [1]; on STAT6 [2]) were 1 to 10 µM and > 100 µM, respectively.

Consider `CN(C)C(=O)c1cc2cc(NC(=O)CCCn3ccnn3)ccc2o1` [Compound I-258], for which the IC50 in test [1] is 10 to 100 µM; at STAT6 [2], > 100 µM.

`COc1cc(C(=O)N(C)C)ccc1C1=CCCN(C(=O)CCn2ccnn2)C1` [Compound I-260]: the concentration for half-maximal inhibition (IC50) in test [1] was 1 to 10 µM; on STAT6 [2], > 100 µM.

On to `CN(C)C(=O)c1cc2cc(NC(=O)CCn3ccnn3)ccc2o1` [Compound I-262], for which the concentration for half-maximal inhibition (IC50) in test [1] is 10 to 100 µM; on STAT6 [2], > 100 µM.

Regarding `CN(C)C(=O)c1ccc(C2=CCCN(C(=O)CCn3ccnn3)C2)cc1` [Compound I-288], the IC50 in test [1] is 1 to 10 µM; at STAT6 [2], > 100 µM.

Turning to `CN(C)C(=O)c1cc2cc(C3CCN(C(=O)CCn4ccnn4)C3)ccc2o1` (stereo not drawn) [Compound I-303], the IC50 is 10 to 100 µM in test [1] and > 100 µM on STAT6 [2].

On to `COc1ccccc1-c1cc(Cc2ccccn2)c(F)c(C2=CCCN(C(=O)CCn3ccnn3)C2)c1` [Compound I-1102], for which the IC50 (in test [1]; on STAT6 [3]) was 0.1 to 1 µM in each case.

Take `CCc1ccc(-c2cc(C(=O)N3Cc4cnn(CC)c4C3)cc3cc(-c4cccc(C(=O)O)c4C)n(CC4CC4)c23)c(C)n1` [Compound I-1240]: in test [1], the IC50 is 1 to 10 µM.

With `CCc1ccc(-c2cc(C(=O)N3Cc4cnn(CC)c4C3)cc3cc(-c4cc(C(=O)O)ccc4C)n(CC4CC4)c23)c(C)n1` [Compound I-1246], the IC50 in test [1] fell in the range of 1 to 10 µM.

As to `CNC(=O)c1ccc2c(c1)nc(-c1nc3ccc(F)cc3[nH]1)n2Cc1ccc(CN2CCOCC2)o1` [Compound I-1271], the concentration for half-maximal inhibition (IC50) in test [1] lay within 10 to 100 µM.

In test [1], `CNC(=O)c1ccc2c(c1)nc(-c1cccn1C)n2-c1ccccc1OC(F)F` [Compound I-1272] registered an IC50 of 10 to 100 µM.

For `CN(CC1CCN(c2ccc(-n3ccccc3=O)cc2F)CC1)C(=O)c1ccc(OC(F)F)cc1` [Compound I-1273], the half-inhibitory concentration (IC50) in test [1] is 10 to 100 µM.

As to `CN(C)C(=O)c1cnc(-c2ccc(NC(=O)CCn3ccnn3)cc2)[nH]1` [Compound I-1295], the half-maximal inhibitory concentration (IC50) in test [1] was 10 to 100 µM.

For `COc1ccccc1-c1cc(-n2ccccc2=O)cc(F)c1N1CCC(CN(C)C(=O)c2ccc(CO)cc2)CC1` [Compound I-1296], in test [1], the IC50 lay within 10 to 100 µM.

The compound `CN(C)C(=O)c1cc2c([nH]1)CN(C1CCCN(C(=O)CCn3ccnn3)C1)CC2` (stereo not drawn) [Compound I-1297] showed a concentration for half-maximal inhibition (IC50) in test [1] of 10 to 100 µM.

Consider `CN(C)C(=O)c1ccc(C2=CCCN(C(=O)CC3Oc4ccccc4NC3=O)C2)c(OC(F)(F)F)c1` (stereo not drawn) [Compound I-1298], for which the IC50 in test [1] fell in the range of 10 to 100 µM.

Regarding `CN(C)C(=O)c1cc2ccc(-c3cnc(CC(=O)Nc4cccc(C(N)=O)c4)s3)c(F)c2[nH]1` [Compound I-1323], in test [1], the half-inhibitory concentration (IC50) was in the range of 0.1 to 1 µM.

Turning to `CN(C)C(=O)c1cc2ccc(C3CCCCN(C(=O)Nc4cccc(C(N)=O)c4)C3)c(F)c2[nH]1` (stereo not drawn) [Compound I-1325], the half-inhibitory concentration (IC50) in test [1] is 10 to 100 µM.

In turn, `COc1ccccc1-c1cc(-c2cccc(C(=O)N(C)C)c2)c(F)c2[nH]c(C(=O)N(C)C)cc12` [Compound I-1583] returned an IC50 in test [1] of 1 to 10 µM.

For the compound `O=C(CCn1ccnn1)N1CCC=C(c2ccc(-n3ccccc3=O)cc2)C1` [Compound I-1625], the IC50 in test [1] is 1 to 10 µM.
